Tested on: plasmid pCMV/mEPO
Assay: Gel electrophoresis of complexes of plasmid and fluorescently labelled polyamides
Format: binding
Settings: agarose gel, after 10 min or 5 hr incubation; control rhodamine-peptide
Procedure: The ability of the polyamides to bind the DNA plasmid was assessed by gel electrophoresis of complexes of plasmid and fluorescently labelled polyamides.
A plasmid pCMV/mEPO was constructed by inserting the mouse EPO (mEPO) coding sequence as a EcoRI-BamHI 0.6 Kb fragment into pViJnsB (Montgomery, D. L., Shiver J. W., Leander K. R., Perry, H. C., Friedman, A., Martinez, D., Ulmer, J. B., Donnelly, J. J., Liu, M. A. (1993) DNA Cell. Biol. 12, 777-783.), which contains the CMV immediate/early region promoter and enhancer with intron A followed by the BGH polyadenylation signal. The mouse EPO coding region including 40 bp of the 5′ untranslated region (Shoemaker, C. B., & Mitsock, L. D. (1986) Mol. Cell. Biol. 6, 849-858) was assembled from synthetic oligonucleotides as described (Stemmer, W. P. C, Crameri, A., Ha, K. D., Brennan, T. M., & Heyneker, H. L. (1995) Gene 164, 49-53.).
In a typical experiment either the rhodamine labelled polyamide (33), the peptide-polyamide (35) and the correspondent rhodamine-peptide as control, were dissolved in DMSO at a 0.55 mM concentration. Serial dilutions of the polyamides and the peptide were prepared in DMSO. The plasmid stock solution was 0.54 μM. […]

Rhodamine-Aoc-Pro-Lys-Lys-Lys-Arg-Lys-Val-Gluu-Asp-Pro-Tyr-Lys(Br—CH2—CO)-Gly-Gly-CO—NH2 [compound 34]
co-migration of the fluorescent label with the plasmid: does not co-migrate with the plasmid

Source: patent publication US20030207400A1, “Vectors for dna delivery” (priority 2003, published 2003)
